As a reminder, the IC50 is the point on the concentration scale where inhibition reaches its midpoint.

Where a name gives a salt, the structure may show the parent alone. Read-outs that look alike come from different tables or passages of the source.

The assay has as its target T1, BACE1 enzyme (soluble, truncated BACE enzyme, BACE1deltaTM96His) (Homo sapiens, UniProt P56817).
T1 construct: soluble, truncated BACE enzyme (BACE1deltaTM96His); His; made in house
Kind of assay: BACE1 Fluorescent Polarization (FP) Assay. The conditions noted are these: geometric mean of 2-4 IC50 determinations unless footnoted (^2: 5-6 determinations; ^4: single determination). In kind it is biochemical. The method in brief: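 Soluble truncated His-tagged BACE1 (BACE1deltaTM96His, from CHO-K1 conditioned media; 0.1 nM final) with biotinylated Oregon green peptide substrate (150 nM final), in 100 mM sodium acetate pH 4.5, 0.001% Tween-20. Compounds in ½ log series from 100 μM top; 3 h at 37° C. Stopped with streptavidin; cleavage read as Δ mP fluorescence polarization (Ex485/Em530).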

The mark [1] stands for this setting: 8-point curve, read-out: BACE activity, 8-point curve, IC50.
[2] abbreviates: 11-point curve, read-out: BACE activity, 11-point curve, IC50.

T1 sequence (P56817 46-457): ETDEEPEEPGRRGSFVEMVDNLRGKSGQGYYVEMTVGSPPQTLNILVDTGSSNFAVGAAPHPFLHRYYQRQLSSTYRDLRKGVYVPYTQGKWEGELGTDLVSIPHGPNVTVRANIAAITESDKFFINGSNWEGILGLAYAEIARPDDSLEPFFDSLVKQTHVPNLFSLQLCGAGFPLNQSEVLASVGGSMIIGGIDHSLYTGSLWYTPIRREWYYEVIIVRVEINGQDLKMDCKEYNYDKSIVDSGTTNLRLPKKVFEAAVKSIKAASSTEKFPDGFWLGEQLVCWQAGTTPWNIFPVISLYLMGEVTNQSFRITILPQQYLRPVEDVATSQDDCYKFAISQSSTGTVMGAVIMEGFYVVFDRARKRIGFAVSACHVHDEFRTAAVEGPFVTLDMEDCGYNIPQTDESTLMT

`Cc1scnc1-c1cc(CN2CC[C@]3(C=CS(=O)(=O)N3c3cccc(F)c3)C[C@@H]2C)ccc1O` [Example 73, 4-{[(5R,7S)-1-(3-fluorophenyl)-7-methyl-2,2-dioxido-2-thia-1,8-diazaspiro[4.5]dec-3-en-8-yl]methyl}-2-(5-methyl-1,3-thiazol-4-yl)phenol, ammonium sail]: the IC50 runs as follows: under setting [1], 2.44 nM; under setting [2], 44.5 nM. With `Cc1cccnc1-c1cc(CN2CC[C@]3(C=CS(=O)(=O)N3c3cccc(F)c3)C[C@@H]2C)ccc1O` [Example 74, 4-{[(5R,7S)-1-(3-fluorophenyl)-7-methyl-2,2-dioxido-2-thia-1,8-diazaspiro[4.5]dec-3-en-8-yl]methyl}-2-(3-methylpyridin-2-yl)phenol], the IC50 worked out at 13.8 nM under setting [1] and 115 nM under setting [2]. On to `C[C@H]1C[C@@]2(C=CS(=O)(=O)N2c2cccc(F)c2)CCN1Cc1ccc(O)c(C2CCC2)c1` [Example 75, 2-cyclobutyl-4-{[(5R,7S)-1-(3-fluorophenyl)-7-methyl-2,2-dioxido-2-thia-1,8-diazaspiro[4.5]dec-3-en-8-yl]methyl}phenol], for which the IC50 under setting [2] turned out to be 41.8 nM. In the case of `Cc1ncccc1-c1ocnc1CN1CC[C@]2(C=CS(=O)(=O)N2c2cccc(F)c2)C[C@@H]1C` [Example 76, (5R,7S)-1-(3-fluorophenyl)-7-methyl-8-{[5-(2-methylpyridin-3-yl)-1,3-oxazol-4-yl]methyl}-2-thia-1,8-diazaspiro[4.5]dec-3-ene 2,2-dioxide], the IC50 reads like this: under setting [1], 705 nM; under setting [2], 2970 nM. Turning to `Cc1cccnc1-c1cccc(CN2CC[C@]3(C=CS(=O)(=O)N3c3cccc(F)c3)C[C@@H]2C)c1` [Example 77, (5R,7S)-1-(3-fluorophenyl)-7-methyl-8-[3-(3-methylpyridin-2-yl)benzyl]-2-thia-1,8-diazaspiro[4.5]dec-3-ene 2,2-dioxide, trifluoroacetic acid salt], the concentration for half-maximal inhibition (IC50) under setting [2] worked out at 927 nM. For `Cc1cccnc1-c1cc(CN2CC[C@]3(C=CS(=O)(=O)N3c3cccc(F)c3)C[C@@H]2C)ccc1F` [Example 78, (5R,7S)-8-[4-fluoro-3-(3-methylpyridin-2-yl)benzyl]-1-(3-fluorophenyl)-7-methyl-thia-1,8-diazaspiro[4.5]dec-3-ene 2,2-dioxide], the IC50 under setting [2] is 5650 nM. Turning to `C[C@H]1C[C@@]2(C=CS(=O)(=O)N2c2cccc(F)c2)CCN1Cc1ncoc1C1CCCOC1` (stereo partly drawn) [Example 79, (5R,7S)-1-(3-fluorophenyl)-7-methyl-8-{[5-(tetrahydro-2H-pyran-3-yl)-1,3-oxazol-4-yl]methyl}-2-thia-1,8-diazaspiro[4.5]dec-3-ene 2,2-dioxide], the IC50 by setting is: under setting [1], 189 nM; under setting [2], 519 nM. Turning to `CC(C)Oc1cccc(CN2CC[C@@]3(C[C@@H]2C)C(=O)CS(=O)(=O)N3c2cccc(F)c2)c1` [Example 81, (5R,7S)-1-(3-fluorophenyl)-8-(3-isopropoxybenzyl)-7-methyl-2-thia-1,8-diazaspiro[4.5]decan-4-one 2,2-dioxide], the IC50 under setting [2] turned out to be 5720 nM. On the same count and under the same terms, in the case of `Cc1csnc1-c1cc(CN2CC[C@@]3(C[C@@H]2C)C(=O)CS(=O)(=O)N3c2cccc(F)c2)ccc1O` [Example 82, (5R,7S)-1-(3-fluorophenyl)-8-[4-hydroxy-3-(4-methylisothiazol-3-yl)benzyl]-7-methyl-2-thia-1,8-diazaspiro[4.5]decan-4-one 2,2-dioxide] it was 20.9 nM; in that of `Cc1scnc1-c1cc(CN2CC[C@@]3(C[C@@H]2C)C(=O)CS(=O)(=O)N3c2cccc(F)c2)ccc1O` [Example 83, (5R,7S)-1-(3-fluorophenyl)-8-[4-hydroxy-3-(5-methyl-1,3-thiazol-4-yl)benzyl]-7-methyl-2-thia-1,8-diazaspiro[4.5]decan-4-one 2,2-dioxide], 240 nM. Consider `C[C@H]1C[C@]2(CCN1Cc1ccc(O)c(C3CCC3)c1)C(=O)CS(=O)(=O)N2c1cccc(F)c1` [Example 84, (5R,7S)-8-(3-cyclobutyl-4-hydroxybenzyl)-1-(3-fluorophenyl)-7-methyl-2-thia-1,8-diazaspiro[4.5]decan-4-one 2,2-dioxide], for which the IC50 under setting [2] was 337 nM.

For `Cc1cccnc1-c1cc(CN2CC[C@@]3(C[C@@H]2C)C(=O)CS(=O)(=O)N3c2cccc(F)c2)ccc1O` [Example 85, (5R,7S)-1-(3-fluorophenyl)-8-[4-hydroxy-3-(3-methylpyridin-2-yl)benzyl]-7-methyl-2-thia-1,8-diazaspiro[4.5]decan-4-one 2,2-dioxide], under setting [2], the IC50 came to 715 nM. On to `COC1=CS(=O)(=O)N(c2cccc(F)c2)[C@@]12CCN(Cc1ccc(O)c(-c3nscc3C)c1)[C@@H](C)C2` [Example 86, 4-{[(5R,7S)-1-(3-fluorophenyl)-4-methoxy-7-methyl-2,2-dioxido-2-thia-1,8-diazaspiro[4.5]dec-3-en-8-yl]methyl}-2-(4-methylisothiazol-3-yl)phenol, ammonium salt], for which the IC50 under setting [2] worked out at 117 nM. Turning to `C[C@H]1C[C@]2(CCN1Cc1ccc(O)c(C3CCC3)c1)CCS(=O)(=O)N2c1cnccn1` [Example 87, 2-cyclobutyl-4-{[(5R,7S)-7-methyl-2,2-dioxido-1-(pyrazin-2-yl)-2-thia-1,8-diazaspiro[4.5]dec-8-yl]methyl}phenol], the IC50 under setting [2] is 2670 nM. With `Cc1csnc1-c1cc(CN2CC[C@]3(CCS(=O)(=O)N3c3cnccn3)C[C@@H]2C)ccc1O` [Example 88, 4-{[(5R,7S)-7-methyl-2,2-dioxido-1-(pyrazin-2-yl)-2-thia-1,8-diazaspiro[4.5]dec-8-yl]methyl}-2-(4-methylisothiazol-3-yl)phenol], the IC50 under setting [2] was determined as 457 nM. For `Cc1scnc1-c1cc(CN2CC[C@]3(CCS(=O)(=O)N3c3cnccn3)C[C@@H]2C)ccc1O` [Example 89, 4-{[(5R,7S)-7-methyl-2,2-dioxido-1-(pyrazin-2-yl)-2-thia-1,8-diazaspiro[4.5]dec-8-yl]methyl}-2-(5-methyl-1,3-thiazol-4-yl)phenol], the IC50 is, setting by setting: under setting [1], 64.9 nM; under setting [2], 1230 nM.

For the molecule `Cc1scnc1-c1cc(CN2CC[C@]3(CCS(=O)(=O)N3c3ccccn3)C[C@@H]2C)ccc1O` [Example 90, 4-{[(5R,7S)-7-methyl-2,2-dioxido-1-(pyridin-2-yl)-2-thia-1,8-diazaspiro[4.5]dec-8-yl]methyl}-2-(5-methyl-1,3-thiazol-4-yl)phenol], the half-inhibitory concentration (IC50) under setting [2] came to 3280 nM. Still for that read-out and setting: in the case of `Cc1csnc1-c1cc(CN2CC[C@]3(CCS(=O)(=O)N3c3ccccn3)C[C@@H]2C)ccc1O` [Example 91, 4-{[(5R,7S)-7-methyl-2,2-dioxido-1-(pyridin-2-yl)-2-thia-1,8-diazaspiro[4.5]dec-8-yl]methyl}-2-(4-methylisothiazol-3-yl)phenol] it was 763 nM; in that of `C[C@H]1C[C@]2(CCN1Cc1ccc(O)c(C3CCC3)c1)CCS(=O)(=O)N2c1ccccn1` [Example 92, 2-cyclobutyl-4-{[(5R,7S)-7-methyl-2,2-dioxido-1-(pyridin-2-yl)-2-thia-1,8-diazaspiro[4.5]dec-8-yl]methyl}phenol], 4190 nM.
